Results: ChEMBL document CHEMBL1153717

Target: T1, Tyrosine-protein phosphatase non-receptor type 2 (Homo sapiens, UniProt P17706)
T1 sequence (P17706 whole entry): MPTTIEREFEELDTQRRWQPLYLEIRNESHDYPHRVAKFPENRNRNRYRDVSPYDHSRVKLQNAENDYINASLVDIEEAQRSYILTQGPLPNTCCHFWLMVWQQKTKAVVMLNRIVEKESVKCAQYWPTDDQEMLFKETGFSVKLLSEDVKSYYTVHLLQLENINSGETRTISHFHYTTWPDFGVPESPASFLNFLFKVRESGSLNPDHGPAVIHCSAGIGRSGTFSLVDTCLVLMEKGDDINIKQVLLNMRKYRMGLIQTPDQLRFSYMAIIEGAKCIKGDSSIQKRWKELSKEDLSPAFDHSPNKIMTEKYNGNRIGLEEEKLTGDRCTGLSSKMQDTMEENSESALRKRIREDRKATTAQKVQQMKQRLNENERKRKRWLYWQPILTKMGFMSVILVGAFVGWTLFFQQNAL
Assay: Inhibition of human TCPTP
Conditions: not given

Compound	Ki [µM]
O=C(Nc1cc(C(F)(F)F)c(Br)c(C(F)(F)F)c1)c1ccc(C(F)(F)P(=O)(O)O)cc1	> 100

Target: T2, Receptor-type tyrosine-protein phosphatase C (Homo sapiens, UniProt P08575)
T2 sequence (P08575 whole entry): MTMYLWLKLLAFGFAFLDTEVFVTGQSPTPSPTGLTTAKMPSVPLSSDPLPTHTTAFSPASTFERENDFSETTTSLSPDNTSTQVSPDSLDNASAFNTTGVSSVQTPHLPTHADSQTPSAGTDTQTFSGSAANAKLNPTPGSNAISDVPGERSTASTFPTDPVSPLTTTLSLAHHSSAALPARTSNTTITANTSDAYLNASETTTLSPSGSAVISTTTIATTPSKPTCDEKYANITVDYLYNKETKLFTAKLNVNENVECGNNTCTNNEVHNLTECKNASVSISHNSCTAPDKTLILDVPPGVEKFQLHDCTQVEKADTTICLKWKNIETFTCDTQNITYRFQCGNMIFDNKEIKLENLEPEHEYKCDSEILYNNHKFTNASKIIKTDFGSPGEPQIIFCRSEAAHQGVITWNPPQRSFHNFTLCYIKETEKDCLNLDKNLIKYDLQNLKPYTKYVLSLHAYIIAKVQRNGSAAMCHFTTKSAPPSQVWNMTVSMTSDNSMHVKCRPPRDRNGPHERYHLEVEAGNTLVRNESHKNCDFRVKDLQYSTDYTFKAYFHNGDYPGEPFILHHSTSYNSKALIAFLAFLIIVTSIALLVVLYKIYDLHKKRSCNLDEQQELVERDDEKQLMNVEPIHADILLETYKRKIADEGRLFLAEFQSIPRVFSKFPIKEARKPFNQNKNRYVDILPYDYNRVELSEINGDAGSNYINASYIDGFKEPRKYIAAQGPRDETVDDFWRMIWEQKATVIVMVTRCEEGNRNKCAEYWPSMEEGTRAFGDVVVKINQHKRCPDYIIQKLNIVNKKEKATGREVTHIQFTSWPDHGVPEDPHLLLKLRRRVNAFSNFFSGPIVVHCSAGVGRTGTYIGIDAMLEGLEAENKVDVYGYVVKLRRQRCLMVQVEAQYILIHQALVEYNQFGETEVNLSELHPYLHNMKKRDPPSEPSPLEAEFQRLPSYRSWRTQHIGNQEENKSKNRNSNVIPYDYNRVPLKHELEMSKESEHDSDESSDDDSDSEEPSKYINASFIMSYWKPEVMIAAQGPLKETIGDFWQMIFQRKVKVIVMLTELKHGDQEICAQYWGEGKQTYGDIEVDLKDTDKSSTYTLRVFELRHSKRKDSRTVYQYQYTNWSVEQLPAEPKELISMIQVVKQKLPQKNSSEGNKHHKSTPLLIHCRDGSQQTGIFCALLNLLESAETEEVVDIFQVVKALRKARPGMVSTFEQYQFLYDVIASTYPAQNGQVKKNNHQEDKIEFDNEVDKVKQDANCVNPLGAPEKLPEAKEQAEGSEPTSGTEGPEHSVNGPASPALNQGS
Assay: Inhibition of human CD45
Conditions: not given

Compound	Ki [µM]
O=C(Nc1cc(C(F)(F)F)c(Br)c(C(F)(F)F)c1)c1ccc(C(F)(F)P(=O)(O)O)cc1	> 100

Target: Dual specificity protein phosphatase 3 (Homo sapiens, UniProt P51452)
Sequence (P51452 whole entry): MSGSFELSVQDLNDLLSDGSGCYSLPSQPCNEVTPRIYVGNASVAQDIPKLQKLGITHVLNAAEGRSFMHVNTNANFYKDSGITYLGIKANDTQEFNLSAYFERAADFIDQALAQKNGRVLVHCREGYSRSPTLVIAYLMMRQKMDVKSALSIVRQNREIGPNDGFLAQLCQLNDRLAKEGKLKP
Assay: Inhibition of human VHR
Conditions: not given

Compound	Ki [µM]
O=C(Nc1cc(C(F)(F)F)c(Br)c(C(F)(F)F)c1)c1ccc(C(F)(F)P(=O)(O)O)cc1	> 100

Target: T3, Tyrosine-protein phosphatase non-receptor type 1 (Homo sapiens, UniProt P18031)
T3 sequence (P18031 whole entry): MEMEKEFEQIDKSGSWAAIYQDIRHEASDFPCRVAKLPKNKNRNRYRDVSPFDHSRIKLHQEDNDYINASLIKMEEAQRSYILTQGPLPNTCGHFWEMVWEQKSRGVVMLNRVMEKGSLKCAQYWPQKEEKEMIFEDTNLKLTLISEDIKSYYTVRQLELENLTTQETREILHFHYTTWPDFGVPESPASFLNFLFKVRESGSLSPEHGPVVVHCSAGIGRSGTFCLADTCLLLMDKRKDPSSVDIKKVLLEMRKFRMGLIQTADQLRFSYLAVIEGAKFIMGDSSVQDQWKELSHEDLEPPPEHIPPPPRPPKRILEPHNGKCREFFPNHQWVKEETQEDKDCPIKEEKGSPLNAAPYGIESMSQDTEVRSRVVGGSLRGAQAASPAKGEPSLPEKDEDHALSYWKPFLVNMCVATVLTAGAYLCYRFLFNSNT
Assay: Inhibition of human PTP1B
Conditions: not given

Compound	Ki [µM]
O=C(Nc1cc(C(F)(F)F)c(Br)c(C(F)(F)F)c1)c1ccc(C(F)(F)P(=O)(O)O)cc1	> 100

Target: Receptor-type tyrosine-protein phosphatase F (Homo sapiens, UniProt P10586)
Sequence (P10586 whole entry): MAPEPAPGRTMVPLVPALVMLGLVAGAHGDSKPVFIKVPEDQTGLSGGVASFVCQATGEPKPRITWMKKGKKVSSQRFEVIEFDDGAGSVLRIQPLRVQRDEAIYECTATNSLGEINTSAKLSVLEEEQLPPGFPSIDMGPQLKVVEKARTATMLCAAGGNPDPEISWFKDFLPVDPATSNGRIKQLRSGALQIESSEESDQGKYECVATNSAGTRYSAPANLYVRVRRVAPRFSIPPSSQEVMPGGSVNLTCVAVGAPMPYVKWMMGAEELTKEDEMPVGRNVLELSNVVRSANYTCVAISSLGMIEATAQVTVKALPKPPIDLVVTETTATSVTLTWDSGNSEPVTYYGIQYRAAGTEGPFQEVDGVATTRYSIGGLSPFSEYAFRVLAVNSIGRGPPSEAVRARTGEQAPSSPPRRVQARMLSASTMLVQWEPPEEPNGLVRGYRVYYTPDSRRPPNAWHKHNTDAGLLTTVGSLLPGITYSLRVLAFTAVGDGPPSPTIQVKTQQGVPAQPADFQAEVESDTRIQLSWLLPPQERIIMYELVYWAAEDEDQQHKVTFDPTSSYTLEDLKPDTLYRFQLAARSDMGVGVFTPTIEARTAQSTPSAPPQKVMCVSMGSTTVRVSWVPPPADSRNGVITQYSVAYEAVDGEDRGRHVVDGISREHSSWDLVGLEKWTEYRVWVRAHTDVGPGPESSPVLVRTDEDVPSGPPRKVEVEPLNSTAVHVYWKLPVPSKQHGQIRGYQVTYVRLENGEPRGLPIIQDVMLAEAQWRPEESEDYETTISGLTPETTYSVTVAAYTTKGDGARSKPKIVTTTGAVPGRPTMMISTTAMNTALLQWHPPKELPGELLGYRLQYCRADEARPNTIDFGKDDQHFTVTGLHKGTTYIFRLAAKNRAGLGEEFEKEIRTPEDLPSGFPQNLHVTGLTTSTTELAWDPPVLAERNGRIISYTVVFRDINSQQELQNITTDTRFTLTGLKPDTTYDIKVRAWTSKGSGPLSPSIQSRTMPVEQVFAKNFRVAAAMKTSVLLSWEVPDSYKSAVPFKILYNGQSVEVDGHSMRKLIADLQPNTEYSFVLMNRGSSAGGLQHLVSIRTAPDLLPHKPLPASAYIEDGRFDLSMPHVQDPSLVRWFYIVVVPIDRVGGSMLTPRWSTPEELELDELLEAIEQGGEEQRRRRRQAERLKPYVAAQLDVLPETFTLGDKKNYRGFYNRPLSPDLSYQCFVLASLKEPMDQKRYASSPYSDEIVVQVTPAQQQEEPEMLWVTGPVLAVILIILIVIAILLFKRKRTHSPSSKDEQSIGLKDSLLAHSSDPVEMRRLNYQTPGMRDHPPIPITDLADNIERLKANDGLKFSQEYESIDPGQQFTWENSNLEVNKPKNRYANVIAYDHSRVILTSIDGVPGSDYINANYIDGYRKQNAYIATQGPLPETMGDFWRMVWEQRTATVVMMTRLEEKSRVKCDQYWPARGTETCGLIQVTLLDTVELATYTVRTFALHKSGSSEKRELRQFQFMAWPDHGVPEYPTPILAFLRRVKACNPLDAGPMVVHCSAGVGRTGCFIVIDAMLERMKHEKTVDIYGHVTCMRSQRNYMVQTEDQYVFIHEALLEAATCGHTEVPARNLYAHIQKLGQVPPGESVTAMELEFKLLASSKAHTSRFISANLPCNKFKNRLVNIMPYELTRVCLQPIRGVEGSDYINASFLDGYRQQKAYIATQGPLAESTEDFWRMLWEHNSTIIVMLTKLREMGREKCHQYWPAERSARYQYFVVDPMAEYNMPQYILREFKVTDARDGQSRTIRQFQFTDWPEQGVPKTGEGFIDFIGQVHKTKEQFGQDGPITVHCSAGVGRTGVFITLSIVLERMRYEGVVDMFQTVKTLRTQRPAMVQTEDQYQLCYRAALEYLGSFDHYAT
Assay: Inhibition of human LAR
Conditions: not given

Compound	Ki [µM]
O=C(Nc1cc(C(F)(F)F)c(Br)c(C(F)(F)F)c1)c1ccc(C(F)(F)P(=O)(O)O)cc1	> 100

Target: T4, Low molecular weight phosphotyrosine protein phosphatase (Homo sapiens, UniProt P24666)
T4 sequence (P24666 whole entry): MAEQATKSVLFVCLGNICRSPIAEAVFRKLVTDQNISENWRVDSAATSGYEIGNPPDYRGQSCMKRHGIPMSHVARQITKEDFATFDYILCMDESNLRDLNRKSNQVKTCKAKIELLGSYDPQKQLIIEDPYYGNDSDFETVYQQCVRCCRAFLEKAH
Assay: Inhibition of human HCPTPA
Conditions: not given

Compound	Ki [µM]
O=C(Nc1cc(C(F)(F)F)c(Br)c(C(F)(F)F)c1)c1ccc(C(F)(F)P(=O)(O)O)cc1	14.8

Target: T5, Low molecular weight protein-tyrosine phosphatase A (Mycobacterium tuberculosis, UniProt P9WIA1)
T5 sequence (P9WIA1 whole entry): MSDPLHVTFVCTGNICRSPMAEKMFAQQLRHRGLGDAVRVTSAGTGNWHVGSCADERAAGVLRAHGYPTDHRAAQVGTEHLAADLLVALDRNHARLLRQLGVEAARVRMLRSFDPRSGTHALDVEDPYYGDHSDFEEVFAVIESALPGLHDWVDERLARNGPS
Assay: Inhibition of Mycobacterium tuberculosis PtpA
Conditions: not given

Compound	Ki
O=C(Nc1nc2ccccc2[nH]1)c1ccc(C(F)(F)P(=O)(O)O)cc1	ND(Insoluble)

Same assay, conditions: read-out: Ki

Compound	Ki [µM]
O=C(Nc1cc(C(F)(F)F)cc(C(F)(F)F)c1)c1ccc(C(F)(F)P(=O)(O)O)cc1	3.3
O=C(Nc1ccccc1)c1cccc(C(F)(F)P(=O)(O)O)c1	> 100
O=P(O)(O)C(F)(F)c1ccc(COc2ccccc2)cc1	> 100
O=C(Nc1ccc(C(F)(F)P(=O)(O)O)cc1)c1ccccc1	65.5
O=C(Nc1ccc(F)c(C(F)(F)F)c1)c1ccc(C(F)(F)P(=O)(O)O)cc1	11.4
CCN1CCC(NC(=O)c2ccc(C(F)(F)P(=O)(O)O)cc2)CC1	> 100
CN(C(=O)c1ccc(C(F)(F)P(=O)(O)O)cc1)c1ccccc1	> 100
O=C(Nc1cccc(C(F)(F)F)c1)c1ccc(C(F)(F)P(=O)(O)O)cc1	10.7
O=C(Nc1nccs1)c1ccc(C(F)(F)P(=O)(O)O)cc1	33
O=C(Nc1ccccc1Cl)c1ccc(C(F)(F)P(=O)(O)O)cc1	68
O=P(O)(O)C(F)(F)c1ccc(-c2ccccc2)cc1	> 100
O=P(O)(O)C(F)(F)c1ccc2c(cnn2Cc2ccccc2)c1	> 100
O=C(NCC1CCCC1)c1ccc(C(F)(F)P(=O)(O)O)cc1	> 100
O=C(Nc1ccc(Br)cc1)c1ccc(C(F)(F)P(=O)(O)O)cc1	10.3
O=C(Nc1cc(C(F)(F)F)c(Br)c(C(F)(F)F)c1)c1ccc(C(F)(F)P(=O)(O)O)cc1	1.4
O=C(Nc1ccccc1)c1ccc(C(F)(F)P(=O)(O)O)cc1	24
O=C(Nc1ccc(Cl)cc1)c1ccc(C(F)(F)P(=O)(O)O)cc1	16.8
O=C(Nc1ccc(F)cc1)c1ccc(C(F)(F)P(=O)(O)O)cc1	22.7
O=C(Nc1ccccc1Br)c1ccc(C(F)(F)P(=O)(O)O)cc1	44.6
O=C(Nc1ccc(Br)c(C(F)(F)F)c1)c1ccc(C(F)(F)P(=O)(O)O)cc1	4.9
O=C(Nc1cccc(F)c1)c1ccc(C(F)(F)P(=O)(O)O)cc1	41.8

Compound	Ki [µM]
O=C(Nc1ccc(C(F)(F)P(=O)(O)O)cc1)Nc1cc(C(F)(F)F)cc(C(F)(F)F)c1	3.1
O=C(Nc1ccccc1F)c1ccc(C(F)(F)P(=O)(O)O)cc1	> 100
O=C(Nc1ccc(Cl)c(C(F)(F)F)c1)c1ccc(C(F)(F)P(=O)(O)O)cc1	6
CC(C)NC(=O)c1ccc(C(F)(F)P(=O)(O)O)cc1	> 100
O=[N+]([O-])c1ccc(C(F)(F)P(=O)(O)O)cc1	75.4
O=C(NCC(F)(F)F)c1ccc(C(F)(F)P(=O)(O)O)cc1	49.7
O=C(Nc1ccccc1C(F)(F)F)c1ccc(C(F)(F)P(=O)(O)O)cc1	54.8
O=C(Nc1cccc(Br)c1)c1ccc(C(F)(F)P(=O)(O)O)cc1	18.2
O=C(NCCc1ccccc1)c1ccc(C(F)(F)P(=O)(O)O)cc1	61.6
Cn1cc(-c2ccc(C(F)(F)P(=O)(O)O)cc2)cn1	> 100
O=C(O)c1ccc(C(F)(F)P(=O)(O)O)cc1	> 100
O=P(O)(O)C(F)(F)c1ccc(S(=O)(=O)Nc2ccccc2)cc1	> 100
O=P(O)(O)C(F)(F)c1ccc2nn(Cc3ccccc3)cc2c1	84.4
O=C(NC1CCCC1)c1ccc(C(F)(F)P(=O)(O)O)cc1	72.4
O=C(Nc1ccc(C(F)(F)F)cc1)c1ccc(C(F)(F)P(=O)(O)O)cc1	18.5
O=C(NCc1ccccc1)c1ccc(C(F)(F)P(=O)(O)O)cc1	43.1
O=P(O)(O)C(F)(F)c1ccc(CNc2ccccc2)cc1	> 100
CNC(=O)c1ccc(C(F)(F)P(=O)(O)O)cc1	> 100
O=C(Cc1ccc(C(F)(F)P(=O)(O)O)cc1)Nc1ccccc1	> 100
O=C(Nc1cccc(Cl)c1)c1ccc(C(F)(F)P(=O)(O)O)cc1	34.9
O=P(O)(O)C(F)(F)c1ccc(Br)cc1	92.3
